Series [1] in a line: Cleavage of boronic ester/acid protected compounds by H2O2 (UV-Vis, rate constant, HPLC). It counts as physicochemical. Particulars: for k, pseudo first-order rate constants calculated with an excess of H2O2: 50 μM in HEPES buffer pH 7.5, room temperature. The protocol:
(§1) Absorption spectra of compounds B1-B16 were taken on a Perkin-Elmer Lambda 25 UV-visible spectrophotometer. To a 1.0 mL solution at 0.05 mM concentration in HEPES buffer (50 mM, pH 7.5) was added H2O2 (10 uL (0.09 M) in HEPES for compounds B1-B12 and B14-B16, 10 uL (0.9 M) in HEPES for compound B3, and 2.8 uL (0.09 M) in HEPES for compound B13). Spectra were monitored over time at room temperature. Absorption spectra of compounds B17-B21 were taken on a Perkin-Elmer Lambda 25 UV-visible spectrophotometer. To a 1.0 mL solution at 0.05 mM concentration of compounds 1-7 in HEPES buffer (50 mM, pH=7.5) was added H2O2 (10 uL, 0.09 M in HEPES) or KO2 (0.10 mM) with catalase (5 U). Hydrolytic stability was measured by monitoring samples of B19-B21 in HEPES buffer for a 24 h time period. Spectra were monitored over time at room temperature.
The pseudo-first order rate constant was calculated by monitoring the absorption spectra over time in the presence of excess hydrogen peroxide. To a 1.0 mL solution of compounds B1-B3 and B10-B14 in HEPES buffer (50 mM, pH 7.5) at 50 μM was added H2O2 to final concentrations of 150 μM, 250 μM, 500 μM, 750 μM, and 900 μM. Spectra were monitored over 15-30 min at room temperature with at least 50 spectra recorded. The change in absorption at 302 nm for B1-B3, 272 nm for B10, 312 nm for B11, 268 for B12, 306 nm for B13, and 303 nm for B14 were monitored. For compounds B1-B3 and B10-B11, the rate constant (kobs) was found from monitoring the appearance of the monitored absorption peak by plotting the linear slope of ln [(A∞−At)/(A∞)] vs. time (where A∞ is the absorbance of a 50 μM sample of the methyl salicylate for B1-B3, maltol for B10, and 1,2-HOPO for B11). For compounds B12-B14 the rate constant (kobs) was found from monitoring the disappearance of the monitored absorption peak by plotting the linear slope of ln [(A−AZBG)/(A0−AZBG)] vs. time (where AZBG is the absorbance of a 50 μM sample of the ZBG and A0 is the initial absorbance of […]).^3 The rate of conversion was determined from the slope of the line of kobs vs. [H2O2]. The pseudo-first order rate constant was calculated following literature procedure.^[15] To a 1.0 mL solution of compounds B19-B21 in HEPES buffer at 50 μM was added H2O2 to final concentrations of 150 μM, 250 μM, 500 μM, 750 μM, and 900 μM. Spectra were monitored over 15-30 min at room temperature with at least 50 spectra recorded. The change in absorption at 292 nm for B19 and 252 nm for B20 and B21 were monitored. The rate constant (kobs) was found from the linear slope of ln [(A−AZBG)/(A0−AZBG)] vs. time (where AZBG is the absorbance of a 50 μM sample of the ZBG and A0 is the initial absorbance of B19-B21). The rate of conversion was determined from the slope of the line of kobs vs. [H2O2].
Analytical HPLC was performed on a HP Series 1050 system equipped with a Vydac® C18 reverse phase column (218 TP, 250×4.6 mm, 5 μm). […] Starting with 95% A and 5% B, an […] gradient was run for 15 min to a final solvent mixture of 5% A and 95% B, which was held for 5 min before ramping back down to 95% A and 5% B in 2 min and holding for an additional 4 min. Compounds were prepared in HEPES buffer (50 mM, pH 7.5) at a concentration of 1 mM. Retention times of compounds were determined under identical HPLC conditions prior to and after reaction with H2O2. LC-MS(+) was performed on compounds B6, B15 and B16 to confirm cleavage of the boronic ester to the phenolic moiety.

The nature of series [2]: Hydrolytic stability of boronic ester compounds in HEPES buffer. Format: physicochemical. The following applies: for hydrolytic stability in buffer: 4 h period. The protocol:
as §1

The target in series [3] is T1, MMP-9 (catalytic domain, human, recombinant) (Homo sapiens, UniProt P14780).
T1 construct: MMP-9 (catalytic domain, human, recombinant); purchased BIOMOL International
T1 sequence (P14780 107-444 limits assumed): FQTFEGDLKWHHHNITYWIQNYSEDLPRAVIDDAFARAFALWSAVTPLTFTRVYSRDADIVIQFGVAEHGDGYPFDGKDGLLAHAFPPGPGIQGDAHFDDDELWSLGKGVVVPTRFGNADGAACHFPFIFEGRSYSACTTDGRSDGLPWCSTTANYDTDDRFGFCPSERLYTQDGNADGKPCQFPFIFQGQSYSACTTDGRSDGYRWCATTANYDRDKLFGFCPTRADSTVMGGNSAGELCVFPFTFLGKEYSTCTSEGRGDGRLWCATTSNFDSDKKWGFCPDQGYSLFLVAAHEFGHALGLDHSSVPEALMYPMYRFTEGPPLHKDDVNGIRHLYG
In words: MMP-9 fluorescence-based inhibition assay with and without β-glucosidase. The following applies: for inhibition of MMP-9 when exposed to β-glucosidase: 1 mM for 2, 4 mM for 4, 125 μM for 6; for inhibition of MMP-9 in the absence of β-glucosidase: 1 mM for 2, 4 mM for 4, 125 μM for 6, 16 μM for 8. It counts as biochemical. The protocol: MMP-9 (catalytic domain, human, recombinant), MMP-8 (catalytic domain, human, recombinant), and the assay kit were purchased from BIOMOL International. The assays were carried out according to the procedure provided with the kit. MMP activity was measured in 96-well plates using a Bio-Tek Flx 800 fluorescent plate reader. The ZBGs and their protected analogs were dissolved in DMSO and diluted in HEPES buffer (50 mM, pH 7.5) to a concentration of 10 mM for 1-2, 40 mM for 3-4, and 1.25 mM for 5-6. Each well contained 20 μL, of MMP-9 (0.45 U/mL), inhibitor (10 μL, of 1-6), 5 μL, of β-glucosidase (1 U/μL) when used, and buffer for a total volume of 99 μL. These were incubated for 1 h at 37° C. […] The reaction was initiated by the addition of 1 μL (400 μM) of the fluorescent substrate (Mca-Pro-Leu-Gly-Leu-Dpa-Ala-Arg-NH2 where Mca=(7-methoxycoumarin-4-yl)-acetyl and Dpa=N-3-(2,4-dinitrophenyl)-L-α-β-diaminopropionyl)) and kinetic activity was measured every minute for 30 min with excitation and emission wavelengths at 335 nm and 405 nm, respectively. Enzyme activity with inhibitor was calculated with respect to the control experiment (no inhibitor present). Measurements were performed in duplicate in two independent experiments.
For Cmpds 7 and 8, 1 mL sample in HEPES buffer at a concentration of 1 mM was incubated at 37° C. with 250 U of β-glucosidase (1 U/μL) for 4 h giving a final concentration of 0.8 mM of the inhibitor. After 4 h, a 200 μL aliquot was collected and filtered through a microcentrifuge filter. UV-Vis absorption spectroscopy was to verify that the concentration of 1,2-HOPO-2 was 0.71±0.2 mM in each of the samples using the extinction coefficient for 1,2-HOPO-2 (7) calculated at 346 nm (4,279.3±372 M-1 cm-1). Each well was made up with 20 μL of MMP-9 (0.45 U/mL), inhibitor (2 μL, for 7 and 8), and buffer for a total volume of 99 μL. These were incubated for 30 min at 37° C. For MMP-8 inhibition assays, each of the samples was diluted to 1 μM in HEPES buffer and 15 μL of each were added to 20 μL of MMP-8 (0.092 U/mL) and buffer for a total of 99 μL. The reaction was initiated by the addition of 1 μL (400 μM) of the fluorescent substrate and kinetic activity was measured every minute for 30 min with excitation and emission wavelengths at 335 nm and 405 nm, respectively. Enzyme activity with inhibitor was calculated with respect to the control experiment (no inhibitor present). A control sample was also performed, in which an aliquot of 250 U of β-glucosidase (1 U/μL) with 1 mL of HEPES buffer was incubated for 4 h at 37° C., filtered through a microcentrifuge filter, and evaluated in the MMP assay to confirm that no inhibition is observed with β-glucosidase. Measurements were performed in duplicate in two independent experiments. […]

The nature of series [4]: Hydrolytic stability of sulfonate esters in HEPES buffer. It counts as physicochemical. The protocol:
Absorption spectra of compounds were taken on a Perkin-Elmer Lambda 25 UV-Visible Spectrophotometer. To a 1.0 mL solution at 0.05 mM concentration of each compound in HEPES buffer (50 mM, pH 7.5) was added H2O2 (10 μL, 0.09M in HEPES) and absorption spectra were monitored over time at room temperature. Hydrolytic stability was measured by monitoring each sample in HEPES buffer over a 24 hour time period.

`CC1(C)OB(c2ccc(COc3cccc4cccnc34)cc2)OC1(C)C` [Compound B14, 8-((4-(4,4,5,5-Tetramethyl-1,3,2-dioxaborolan-2-yl)benzyl)oxy)quinoline]: the “k, pseudo first-order rate constants calculated with an excess of H2O2” value in series [1] is 4.1 ± 0.2 M⁻¹ s⁻¹. For the compound `COC(=O)c1ccccc1OC(=O)OCc1ccc(B2OC(C)(C)C(C)(C)O2)cc1` [Compound B2, Methyl 2-((((4-(4,4,5,5-tetramethyl-1,3,2-dioxaborolan-2-yl)benzyl)oxy)carbonyl)oxy)benzoate], the “k, pseudo first-order rate constants calculated with an excess of H2O2” value in series [1] was 2.7 ± 0.1 M⁻¹ s⁻¹. Further, in series [2], the “hydrolytic stability in buffer” value is on record as “spontaneous hydrolytic cleavage”.

As for `COC(=O)c1ccccc1B1OC(C)(C)C(C)(C)O1` [Compound B3, Methyl 2-(4,4,5,5-tetramethyl-1,3,2-dioxaborolan-2-yl)benzoate], in series [1], the “k, pseudo first-order rate constants calculated with an excess of H2O2” value was 0.031 ± 0.002 M⁻¹ s⁻¹. Also, the “hydrolytic stability in buffer” value in series [2] was “comparable to the ether linkage used in B1”. Regarding `O=c1ccccn1OC1OC(CO)C(O)C(O)C1O` [Compound 2, 1-Hydroxypyridin-2(1H)-one-β-D-glucopyranoside], in series [3], the “inhibition of MMP-9 when exposed to β-glucosidase” value is “complete restoration of inhibition” and the “inhibition of MMP-9 in the absence of β-glucosidase” value is “attenuated inhibition”. The matching figures for `Cc1occc(=S)c1OC1OC(CO)C(O)C(O)C1O` [Compound 6, 2-Methyl-4H-pyran-4-thione-3-β-D-glucopyranoside]: “complete restoration of inhibition” and “attenuated inhibition”. Consider `Cc1c(OCc2ccc(B3OC(C)(C)C(C)(C)O3)cc2)c(=O)ccn1C` [Compound B12, 1,2-Dimethyl-3-((4-(4,4,5,5-tetramethyl-1,3,2-dioxaborolan-2-yl)benzyl)oxy)pyridin-4(1H)-one], for which the “k, pseudo first-order rate constants calculated with an excess of H2O2” value in series [1] is 3.5 ± 0.3 M⁻¹ s⁻¹. Regarding `O=c1ccccn1OS(=O)(=O)c1ccc([N+](=O)[O-])cc1[N+](=O)[O-]` [PZBG-1d, 2-Oxopyridin-1(2H)-yl 2,4-dinitrobenzenesulfonate], the “stability in aqueous buffer in the absence of H2O2” value in series [4] was “rapid hydrolytic cleavage”. For `Cc1occc(=O)c1OC1OC(CO)C(O)C(O)C1O` [Compound 4, 2-Methyl-4H-pyran-4-one-3-β-D-glucopyranoside], in series [3], the “inhibition of MMP-9 when exposed to β-glucosidase” value was “complete restoration of inhibition” and the “inhibition of MMP-9 in the absence of β-glucosidase” value was “attenuated inhibition”. Take `COC(=O)c1ccccc1OCc1ccc(B2OC(C)(C)C(C)(C)O2)cc1` [Compound B1, Methyl 2-((4-(4,4,5,5-tetramethyl-1,3,2-dioxaborolan-2-yl)benzyl)oxy)benzoate]: the “k, pseudo first-order rate constants calculated with an excess of H2O2” value in series [1] is 1.12 ± 0.04 M⁻¹ s⁻¹. In series [2], the “hydrolytic stability in buffer” value is “stable”.

`Cc1occc(=O)c1OC(=O)OCc1ccc(B2OC(C)C(C)(C)O2)cc1` (stereo not drawn) [Compound B21, 2-methyl-4-oxo-4H-pyran-3-yl 4-(4,4,5-trimethyl-1,3,2-dioxaborolan-2-yl)benzyl carbonate]: the “rate constant of conversion with an excess of H2O2” value in series [1] (pseudo-first order conditions, HEPES buffer) turned out to be 6.7 M⁻¹ s⁻¹. This compound displayed a hydrolysis in buffer in series [2] (24 h time period) above 50%. In the case of `CC1(C)OB(c2ccc(COc3cccccc3=O)cc2)OC1(C)C` [Compound B13, 2-((4-(4,4,5,5-Tetramethyl-1,3,2-dioxaborolan-2-yl)benzyl)oxy)cyclohepta-2,4,6-trienone], in series [1], the “k, pseudo first-order rate constants calculated with an excess of H2O2” value is 2.9 ± 0.1 M⁻¹ s⁻¹.
